According to US9611263B2, “Compounds that modulate intracellular calcium” (CALCIMEDICA, INC., priority 2013, dated 2017):
Where two headings read alike, the source gives them in different places.

How the values were obtained:
Orai1/STIM1 = target: T1, Orai1/STIM1 (Homo sapiens, UniProt Q96D31); assay: Fluorescence-based assay of store-operated calcium entry in Orai1/STIM1 stable cells; type: cell-based; details: HEK-293 cells stably expressing human STIM1 and Orai1; 50% inhibition of Peak-Basal fluorescence signal; read-out: Orai1/STIM1 (IC50, μmol)
T1 construct: expressed in transfected cells
Protocol: A. Fluorescence-Based Assay of Store-Operated Calcium Entry in Orai1/STIM1 Stable Cells.
Cells stably expressing recombinant human STIM1 and Orai1 are generated by transfecting a human Orai1 expression plasmid (pcDNA3.1-Orai1-cmyc) into HEK-293 cells stably overexpressing human STIM1 (Roos et al. 2005 JCB 169(3): 435-445). Colonies of cells stably expressing both STIM1 and Orai1 proteins are selected and then subcloned by limiting dilution. Cells were cultured at 37° C./6% CO2 in complete medium with 10% FBS and appropriate selection markers.
The day prior to performing the assay Orai1/STIM1 stable cells are plated in 50 μL of complete medium at 90-95% confluence in a 384 well plate. Cells are grown at 37° C./6% CO2 overnight. On the day of the assay, 1.5 μM fluo-4-AM (Invitrogen) in complete medium is added to the cells, which are then incubated for 1 hour at RT. Cells are washed once in Ca^2+-free HBSS (Hank's buffered saline solution) and 35 μl of Ca^2+-free HBSS is added to each well. Test compounds are added to wells in a 10 μL Ca^2+-free HBSS solution, prepared at 4.5× the desired final concentration, and incubated for 30 minutes at RT. The initial baseline fluorescence signal is then measured with a FLIPR^384 (Molecular Devices) plate reader. Calcium entry is initiated by adding 5 μl of 10× CaCl2 (10 mM) in HBSS, and changes in cellular fluorescence are measured with the FLIPR^384 plate reader. In each well, the magnitude of the fluorescence signal as a result of calcium entry into the cell is determined by calculating the difference between the peak fluorescence signal measured after calcium addition and the initial baseline fluorescence signal (designated Peak-Basal). IC50 values are typically calculated as the concentration that inhibited 50% of the Peak-Basal signal.

RBL-2H3 cells = assay: Fluorescence-based assay of store-operated calcium entry in RBL-2H3 cells; type: cell-based, rat; details: thapsigargin, 50% inhibition of Upslope, read-out: RBL-2H3 (IC50, μmol)
Protocol: B. Fluorescence-Based Assay of Store-Operated Calcium Entry in RBL-2H3 Cells.
RBL-2H3 cells are obtained from ATCC and maintained in complete medium with 10% FBS at 37° C./6% CO2.
The day prior to performing the assay, RBL-2H3 cells are plated in 50 μL of complete medium in a 384 well plate. Cells are grown at 37° C./6% CO2 overnight and grow to 50-60% confluence by the next day. On the assay day, 1.5 μM Fluo-4-AM dye (Invitrogen) in complete medium is added and incubated for 1 hour at RT. Cells are washed twice in Ca^2+-free HBSS buffer and 35 μL Ca^2+-free HBSS buffer is added to each well. 10 μL of a test compound prepared in a Ca^2+-free HBSS solution at 4.5× of the desired concentration is added to a well and incubated for 5 minutes at RT. 10 μL of thapsigargin prepared in a Ca^2+-free HBSS solution at 5.5× of the desired concentration (5.5 uM) is added to each well and incubated for an additional 25 minutes. The initial baseline fluorescence signal is measured with a FLIPR^384 (Molecular Devices) plate reader. 5 μL of 12× calcium in HBSS (12 mM) is added and changes in cellular fluorescence are measured with the FLIPR^384 plate reader. In each well, the change in the fluorescent signal as a function of time due to calcium entry into the cell is determined by calculating the difference between the fluorescent signal measured 7 seconds after calcium addition and the initial baseline fluorescence signal at time zero (t=0). This parameter is designated Upslope. The IC50 value is calculated as the concentration at which 50% of the Upslope is inhibited.

T1 sequence (Q96D31 whole entry): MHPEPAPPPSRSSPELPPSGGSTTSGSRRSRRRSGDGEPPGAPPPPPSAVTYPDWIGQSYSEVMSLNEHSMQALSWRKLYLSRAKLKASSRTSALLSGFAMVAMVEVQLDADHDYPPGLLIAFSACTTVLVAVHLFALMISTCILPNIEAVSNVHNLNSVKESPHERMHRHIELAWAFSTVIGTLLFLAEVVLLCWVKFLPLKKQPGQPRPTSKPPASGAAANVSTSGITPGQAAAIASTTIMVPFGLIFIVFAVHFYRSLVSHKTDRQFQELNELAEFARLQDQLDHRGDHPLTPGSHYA

Molecule | IC50 (Orai1/STIM1) | IC50 (RBL-2H3 cells; Rattus norvegicus, RBL-2H3) | IC50 (RBL-2H3 cells)
Cc1nn(-c2nccs2)cc1-c1cnc(NC(=O)c2c(F)cc(F)cc2F)cn1 [Example 28, 2,4,6-trifluoro-N-(5-(3-methyl-1-(thiazol-2-yl)-1H-pyrazol-4-yl)pyrazin-2-yl)benzamide] | < 600 nM | < 600 nM | 
Cc1nn(-c2nccs2)cc1-c1ccc(NC(=O)c2c(F)cccc2F)cc1 [Example 1, 2,6-difluoro-N-(4-(3-methyl-1-(thiazol-2-yl)-1H-pyrazol-4-yl)phenyl)benzamide] | < 600 nM | < 600 nM | 
Cc1nn(-c2nccs2)cc1-c1ccc(NC(=O)c2c(F)ccc(F)c2F)cc1F [Example 13, 2,3,6-trifluoro-N-(3-fluoro-4-(3-methyl-1-(thiazol-2-yl)-1H-pyrazol-4-yl)phenyl)benzamide] | < 600 nM | < 600 nM | 
Cc1nn(-c2nccs2)cc1-c1ccc(NC(=O)c2c(F)cccc2F)nc1 [Example 18, 2,6-difluoro-N-(5-(3-methyl-1-(thiazol-2-yl)-1H-pyrazol-4-yl)pyridin-2-yl)benzamide] | < 600 nM | < 600 nM | 
CCc1nn(-c2nccs2)cc1-c1ccc(NC(=O)c2c(C)cccc2F)cc1 [Example 8, N-(4-(3-ethyl-1-(thiazol-2-yl)-1H-pyrazol-4-yl)phenyl)-2-fluoro-6-methylbenzamide] | 600 to 1200 nM | < 600 nM | 
O=C(Nc1ccc(-c2cn(-c3nccs3)nc2C(F)(F)F)c(F)c1)c1c(F)cccc1F [Example 51, 2,6-difluoro-N-(3-fluoro-4-(1-(thiazol-2-yl)-3-(trifluoromethyl)-1H-pyrazol-4-yl)phenyl)benzamide] | > 1200 nM | < 600 nM | 
Cc1nn(-c2nccs2)cc1-c1cnc(NC(=O)c2ccccc2F)cn1 [Example 25, 2-fluoro-N-(5-(3-methyl-1-(thiazol-2-yl)-1H-pyrazol-4-yl)pyrazin-2-yl)benzamide] | < 600 nM | < 600 nM | 
CCc1nn(-c2nccs2)cc1-c1ccc(NC(=O)c2c(F)cccc2F)cc1 [Example 6, N-(4-(3-ethyl-1-(thiazol-2-yl)-1H-pyrazol-4-yl)phenyl)-2,6-difluorobenzamide] | < 600 nM | < 600 nM | 
O=C(Nc1cnc(-c2cn(-c3nccs3)nc2C2CC2)cn1)c1c(F)ccc(F)c1F [Example 48, N-(5-(3-cyclopropyl-1-(thiazol-2-yl)-1H-pyrazol-4-yl)pyrazin-2-yl)-2,3,6-trifluorobenzamide] | > 1200 nM | < 600 nM | 
O=C(Nc1ccc(-c2cn(-c3nccs3)nc2C2CC2)c(F)c1)c1c(F)ccc(F)c1F [Example 42, N-(4-(3-cyclopropyl-1-(thiazol-2-yl)-1H-pyrazol-4-yl)-3-fluorophenyl)-2,3,6-trifluorobenzamide] | 600 to 1200 nM | < 600 nM | 
CCc1nn(-c2nccs2)cc1-c1ccc(NC(=O)c2c(F)cccc2F)cc1F [Example 31, N-(4-(3-ethyl-1-(thiazol-2-yl)-1H-pyrazol-4-yl)-3-fluorophenyl)-2,6-difluorobenzamide] | < 600 nM | < 600 nM | 
N#Cc1nn(-c2cc(F)ccc2F)cc1-c1ccc(NC(=O)c2c(F)cccc2F)nc1 [Example 62, N-(5-(3-cyano-1-(2,5-difluorophenyl)-1H-pyrazol-4-yl)pyridin-2-yl)-2,6-difluorobenzamide] | 600 to 1200 nM | < 600 nM | 
Cc1cccc(F)c1C(=O)Nc1ccc(-c2cn(-c3ccccc3F)nc2C)cn1 [Example 59, 2-fluoro-N-(5-(1-(2-fluorophenyl)-3-methyl-1H-pyrazol-4-yl)pyridin-2-yl)-6-methylbenzamide] | < 600 nM | < 600 nM | 
Cc1nn(-c2nccs2)cc1-c1ccc(NC(=O)c2cc(F)nc(F)c2)nc1 [Example 23, 2,6-difluoro-N-(5-(3-methyl-1-(thiazol-2-yl)-1H-pyrazol-4-yl)pyridin-2-yl)isonicotinamide] | < 600 nM | < 600 nM | 
Cc1cn(-c2nccs2)nc1-c1ccc(NC(=O)c2c(F)cccc2F)cc1F [Example 66, 2,6-difluoro-N-(3-fluoro-4-(4-methyl-1-(thiazol-2-yl)-1H-pyrazol-3-yl)phenyl)benzamide] | > 1200 nM | < 600 nM | 
Cc1nn(-c2nccs2)cc1-c1ccc(NC(=O)c2cc(F)nc(F)c2)cc1F [Example 16, 2,6-difluoro-N-(3-fluoro-4-(3-methyl-1-(thiazol-2-yl)-1H-pyrazol-4-yl)phenyl)isonicotinamide] | < 600 nM | < 600 nM | 
Cc1cccc(F)c1C(=O)Nc1cnc(-c2cn(-c3nccs3)nc2C)cn1 [Example 26, 2-fluoro-6-methyl-N-(5-(3-methyl-1-(thiazol-2-yl)-1H-pyrazol-4-yl)pyrazin-2-yl)benzamide] | < 600 nM | < 600 nM | 
O=C(Nc1cnc(-c2cn(-c3nccs3)nc2C2CC2)cn1)c1ccccc1F [Example 50, N-(5-(3-cyclopropyl-1-(thiazol-2-yl)-1H-pyrazol-4-yl)pyrazin-2-yl)-2-fluorobenzamide] | < 600 nM | < 600 nM | 
Cc1cccc(F)c1C(=O)Nc1ccc(-c2cn(-c3nccs3)nc2C)s1 [Example 71, 2-fluoro-6-methyl-N-(5-(3-methyl-1-(thiazol-2-yl)-1H-pyrazol-4-yl)thiophen-2-yl)benzamide] | 600 to 1200 nM | < 600 nM | 
O=C(Nc1cnc(-c2cn(-c3nccs3)nc2C2CC2)cn1)c1c(F)cccc1F [Example 47, N-(5-(3-cyclopropyl-1-(thiazol-2-yl)-1H-pyrazol-4-yl)pyrazin-2-yl)-2,6-difluorobenzamide] | > 1200 nM | < 600 nM | 
CCc1nn(-c2nccs2)cc1-c1ccc(NC(=O)c2c(F)ccc(F)c2F)cc1F [Example 32, N-(4-(3-ethyl-1-(thiazol-2-yl)-1H-pyrazol-4-yl)-3-fluorophenyl)-2,3,6-trifluorobenzamide] | > 1200 nM | < 600 nM | 
Cc1nn(-c2cc(F)ccc2F)cc1-c1ccc(NC(=O)c2c(F)cccc2F)nc1 [Example 55, N-(5-(1-(2,5-difluorophenyl)-3-methyl-1H-pyrazol-4-yl)pyridin-2-yl)-2,6-difluorobenzamide] | < 600 nM | < 600 nM | 
Cc1nn(-c2nccs2)cc1-c1ccc(NC(=O)c2c(F)cc(F)cc2F)cc1F [Example 14, 2,4,6-trifluoro-N-(3-fluoro-4-(3-methyl-1-(thiazol-2-yl)-1H-pyrazol-4-yl)phenyl)benzamide] | < 600 nM | < 600 nM | 
CCc1nn(-c2nccs2)cc1-c1ccc(NC(=O)c2c(F)ccc(F)c2F)nc1 [Example 36, N-(5-(3-ethyl-1-(thiazol-2-yl)-1H-pyrazol-4-yl)pyridin-2-yl)-2,3,6-trifluorobenzamide] | < 600 nM | < 600 nM | 
O=C(Nc1cnc(-c2cn(-c3nccs3)nc2C2CC2)cn1)c1c(F)cc(F)cc1F [Example 49, N-(5-(3-cyclopropyl-1-(thiazol-2-yl)-1H-pyrazol-4-yl)pyrazin-2-yl)-2,4,6-trifluorobenzamide] | 600 to 1200 nM | < 600 nM | 
Cc1nn(-c2nccs2)cc1-c1ccc(NC(=O)c2c(F)ccc(F)c2F)nc1 [Example 20, 2,3,6-trifluoro-N-(5-(3-methyl-1-(thiazol-2-yl)-1H-pyrazol-4-yl)pyridin-2-yl)benzamide] | < 600 nM | < 600 nM | 
N-(4-(3-ethyl-1-(thiazol-2-yl)-1H-pyrazol-4-yl)phenyl)-2,3,6-trifluorobenzamide [Example 9] | 600 to 1200 nM |  | < 600 nM
